Source: patent EP2423181A1, “Multitarget substituted biphenyl diol derivatives” (PROUS INSTITUTE FOR BIOMEDICAL RESEARCH S.A., priority 2010, dated 2012)
Structures can show the parent of a compound that is named as a salt. Where two headings read alike, the source gives them in different places.

Columns and labels:
EGFR = molecular target: T1, EGFR (Homo sapiens, UniProt P00533); assay: EGF receptor tyrosine-protein kinase inhibition (ELISA of Poly[Glu:Tyr-P]); assay type: biochemical
T1 construct: EGF receptor tyrosin-protein kinase activity was assessed in human A431 cells; endogenous in cells; host or cells: human A431 cells
T1 sequence (P00533 25-1210): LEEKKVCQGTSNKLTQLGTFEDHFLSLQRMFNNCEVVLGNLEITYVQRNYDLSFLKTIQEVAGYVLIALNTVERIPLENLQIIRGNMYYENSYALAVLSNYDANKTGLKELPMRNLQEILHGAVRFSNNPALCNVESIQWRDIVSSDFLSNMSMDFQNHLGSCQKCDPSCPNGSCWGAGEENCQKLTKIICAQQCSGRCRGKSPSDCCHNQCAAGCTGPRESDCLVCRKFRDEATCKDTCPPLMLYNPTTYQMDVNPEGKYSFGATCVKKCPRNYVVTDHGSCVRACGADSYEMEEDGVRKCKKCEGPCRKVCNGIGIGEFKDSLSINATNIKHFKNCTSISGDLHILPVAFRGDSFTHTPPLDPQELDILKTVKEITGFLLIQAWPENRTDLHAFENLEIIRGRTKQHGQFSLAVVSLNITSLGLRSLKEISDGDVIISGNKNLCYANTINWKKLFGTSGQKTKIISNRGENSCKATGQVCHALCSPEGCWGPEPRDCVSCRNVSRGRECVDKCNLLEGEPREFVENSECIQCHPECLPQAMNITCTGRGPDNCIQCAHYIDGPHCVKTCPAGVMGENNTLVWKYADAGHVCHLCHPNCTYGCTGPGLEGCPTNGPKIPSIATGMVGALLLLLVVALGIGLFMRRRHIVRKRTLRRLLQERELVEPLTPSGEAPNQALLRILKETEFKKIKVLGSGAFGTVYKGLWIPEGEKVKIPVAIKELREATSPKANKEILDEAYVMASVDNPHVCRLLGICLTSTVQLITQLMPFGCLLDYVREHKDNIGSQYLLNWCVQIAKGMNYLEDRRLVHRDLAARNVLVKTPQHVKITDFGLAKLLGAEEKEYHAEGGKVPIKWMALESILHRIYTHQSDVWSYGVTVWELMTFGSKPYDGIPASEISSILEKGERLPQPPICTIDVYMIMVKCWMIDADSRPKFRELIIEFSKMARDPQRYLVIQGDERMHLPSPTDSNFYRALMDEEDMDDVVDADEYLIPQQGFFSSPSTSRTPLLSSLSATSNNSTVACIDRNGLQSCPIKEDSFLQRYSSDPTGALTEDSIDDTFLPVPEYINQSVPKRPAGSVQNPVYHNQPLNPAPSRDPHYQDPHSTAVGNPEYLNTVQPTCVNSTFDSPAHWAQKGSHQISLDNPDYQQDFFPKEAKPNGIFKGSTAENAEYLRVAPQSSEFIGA
Method: EGF receptor tyrosin-protein kinase activity was assessed in human A431 cells using as a substrate Poly(Glu:Tyr) at 10 µg/ml with a preincubation and incubation times of 15 and 60 min, respectively, at 25°C respectively in 50 mM HEPES pH 7.4, 20 mM MgCl2 and 0.2 mM Na3VO4. An ELISA quantification method of Poly[Glu:Tyr-P] was employed (Cheng, K. and Koland, J.G. J Biol Chem, 1996, 271, 311-318). Table 5. Inhibition of EGFR at 10 µM

COX-2 = molecular target: T2, COX-2 (Homo sapiens, UniProt P35354); assay: COX-2 inhibition (PGE2 enzyme immunoassay); assay type: biochemical; settings: read-out: % COX-2 inhibition
T2 construct: host or cells: Sf21 insect cells
T2 sequence (P35354 18-604): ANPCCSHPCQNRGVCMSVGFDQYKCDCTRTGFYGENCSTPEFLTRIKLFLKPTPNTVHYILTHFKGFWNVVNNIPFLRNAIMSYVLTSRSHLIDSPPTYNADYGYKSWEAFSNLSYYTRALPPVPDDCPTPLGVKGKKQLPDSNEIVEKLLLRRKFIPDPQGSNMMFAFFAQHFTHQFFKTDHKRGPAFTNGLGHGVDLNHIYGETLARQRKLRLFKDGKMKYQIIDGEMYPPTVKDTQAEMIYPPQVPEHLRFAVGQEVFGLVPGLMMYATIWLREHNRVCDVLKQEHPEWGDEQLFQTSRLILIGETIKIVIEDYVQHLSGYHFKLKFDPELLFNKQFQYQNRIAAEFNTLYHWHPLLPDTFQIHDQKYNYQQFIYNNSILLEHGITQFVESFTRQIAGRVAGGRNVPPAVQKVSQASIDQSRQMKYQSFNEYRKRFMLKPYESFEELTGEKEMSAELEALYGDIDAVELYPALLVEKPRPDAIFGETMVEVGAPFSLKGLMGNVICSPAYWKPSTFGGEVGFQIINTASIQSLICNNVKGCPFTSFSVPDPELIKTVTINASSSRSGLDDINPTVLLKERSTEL
Method: (§1) The COX-1 inhibitory activity of representative compounds of the invention was determined according to previously reported methods. COX-1 activity was assessed in human platelets using 100 µM arachidonic acid as a substrate and preincubation and incubation times of 15 min at 37 °C in HBSS, 15 mM HEPES pH 7.4 . The quantification method used was enzyme immunoassay determination of PGE2 (Chan, C.C. et al. J Pharmacol Exp Ther, 1999, 290, 551-560; Swinney, D.C. et al. J Biol Chem, 1997, 272, 12393-12398; Warner, T.D. et al. Proc Natl Acad Sci U S A, 1999, 96, 7563-7568; Riendeau, D. et al. Can J Physiol Pharmacol, 1997, 75, 1088-1095). COX-2 inhibitory activity was determined in human recombinant insect Sf21 cells according to references (Warner, T.D. et al., Proc Natl Acad Sci, USA. 1999;96(13):7563-7568; Riendeau, D. et al., Can J Physiol Pharmacol, 1997 ;75(9):1088-1095). Briefly, the COX-2 inhibitory activity was assessed on human recombinant insect Sf21 cells using 0.3 µM arachidonic acid as a substrate and preincubation and incubation times of 15 and 5 min, respectively, at 37 °C in 100 mM Tris-HCl, pH 7.7. The quantification method used was enzyme immunoassay determination of PGE2. Table 11. Inhibition of COX-1 and COX-2 at 10 µM

tumor melanoma B16-FO = assay: Tumor cell proliferation assay (alamarBlue); assay type: cell-based, murine; settings: Mus musculus
Method: (§2) Changes in cell proliferation were detected based on the ability of viable cells to cause alamarBlue® to change its oxidized (non-fluorescent, blue) to a reduced (fluorescent, red) form. The alamarBlue® reaction allows the quantification of cell proliferation and examination of the metabolic activity of viable cells. Test substances were examined for activity on the proliferation of human or murine tumor cell lines at assay concentrations from 0.01 to 100 µM.

COX-1 = molecular target: T3, COX-1 (Homo sapiens, UniProt P23219); assay: COX-1 inhibition in human platelets (PGE2 enzyme immunoassay); assay type: biochemical; settings: read-out: % COX-1 Inhibition
T3 construct: endogenous in cells; host or cells: human platelets
T3 sequence (P23219 24-599): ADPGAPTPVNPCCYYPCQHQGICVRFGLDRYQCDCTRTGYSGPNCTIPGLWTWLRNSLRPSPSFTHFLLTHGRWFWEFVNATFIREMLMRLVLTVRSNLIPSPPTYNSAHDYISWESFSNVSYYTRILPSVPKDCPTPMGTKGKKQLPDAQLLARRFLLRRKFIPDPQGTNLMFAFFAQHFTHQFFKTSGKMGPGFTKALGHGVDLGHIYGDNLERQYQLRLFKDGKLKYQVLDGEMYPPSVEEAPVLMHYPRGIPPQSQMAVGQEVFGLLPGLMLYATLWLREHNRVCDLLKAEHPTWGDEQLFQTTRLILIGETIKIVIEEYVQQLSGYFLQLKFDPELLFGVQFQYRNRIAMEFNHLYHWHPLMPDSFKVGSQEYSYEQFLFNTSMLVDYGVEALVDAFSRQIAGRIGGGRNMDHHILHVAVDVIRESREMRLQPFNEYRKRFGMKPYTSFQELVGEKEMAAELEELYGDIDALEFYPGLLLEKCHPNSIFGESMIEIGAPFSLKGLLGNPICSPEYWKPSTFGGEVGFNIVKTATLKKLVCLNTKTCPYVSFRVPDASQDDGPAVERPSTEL
Method: as §1

[1] = log D octanol/water distribution coefficient; assay type: physicochemical
From the text: Lipophilicity has been correlated to various drug properties, affecting permeability, absorption, distribution, plasma protein binding, metabolism, elimination, and toxicity. In contrast to honokiol and magnolol, compounds claimed in the invention, and more particularly those wherein the nitrogen atom in the group -O-CH(phenyl)-(CH2)p-NH-R^3 is protonated and the compound further comprises a pharmaceutically acceptable counter-anion present an optimal log Doctanol/water (range 0-3), indicating good aqueous solubility, permeability, oral absorption, and blood-brain barrier penetration. Experimental studies in murine models have confirmed the results.
Absorption, distribution and metabolism studies in vitro with selected examples were performed in order to determine pharmacokinetic parameters such as permeability (or absorption constant), intrinsic clearance (or metabolic clearance), and bioavailability. Physicochemical properties such as water solubility, pKa, log P, and log Doctanol/water, and in vitro experimental studies such as permeability in Caco2 cells, and protein binding in the mouse, stability in murine microsomes, chemical stability at different pH and stability in plasma were evaluated for the pharmacokinetic prediction in mice.

tumor leukaemia K562 = assay: Tumor cell proliferation assay (alamarBlue); assay type: cell-based; settings: Homo sapiens
Method: as §2

tumor liver HepG2 = assay: Tumor cell proliferation assay (alamarBlue); assay type: cell-based; settings: Homo sapiens
Method: as §2

tumor lung A549 = assay: Tumor cell proliferation assay (alamarBlue); assay type: cell-based; settings: Homo sapiens
Method: as §2

tumor prostate LNCaP-FGC = assay: Tumor cell proliferation assay (alamarBlue); assay type: cell-based; settings: Homo sapiens
Method: as §2

[2] = EGFR, at 10 µM, read-out: % Inhibition
[3] = tumor melanoma B16-FO, read-out: IC50
[4] = tumor leukaemia K562, read-out: IC50
[5] = tumor liver HepG2, read-out: IC50
[6] = tumor lung A549, read-out: IC50
[7] = tumor prostate LNCaP-FGC, read-out: IC50

Row | SMILES | inhibition at 10 µM (EGFR; [2]) [%] | inhibition at 10 µM (COX-2; at 10 µM) [%] | IC50 (tumor melanoma B16-FO; [3]) [µM] | inhibition at 10 µM (COX-1; at 10 µM, human platelets) [%] | logDoctanol/water [1] | IC50 (tumor leukaemia K562; [4]) [µM] | IC50 (tumor liver HepG2; [5]) [µM] | IC50 (tumor lung A549; [6]) [µM] | IC50 (tumor prostate LNCaP-FGC; [7]) [µM] | inhibition at 10 µM (EGFR) [%] | inhibition at 10 µM (COX-2) [%] | IC50 (tumor melanoma B16-FO) [µM] | inhibition at 10 µM (COX-1) [%] | IC50 (tumor leukaemia K562; K562) [µM] | IC50 (tumor liver HepG2; HepG2) [µM] | IC50 (tumor lung A549; A549) [µM] | IC50 (tumor prostate LNCaP-FGC) [µM]
1 | C=CCc1ccc(O)c(-c2cc(CC=C)ccc2OC(CCNC)c2ccccc2)c1.Cl (stereo not drawn) [Example 1, 5,5'-Diallyl-2'-[3-(methylamino)-1-phenylpropoxy]biphenyl-2-ol hydrochloride] | 72 | 0 | 1.9 | 81 | 1.31 | 1.9 | 1.4 | 5 | 13 |  |  |  |  |  |  |  | 
2 | C=CCc1ccc(O)c(-c2ccc(O)c(CC=C)c2)c1 [Honokiol, reference compound] | 7 | 79 | 30 | 0 | 5.25 | 16 | 12 | 12 | 16 |  |  |  |  |  |  |  | 
3 | C=CCc1ccc(O)c(-c2ccc(OC(CCNC)c3ccccc3)c(CC=C)c2)c1 (stereo not drawn) [Example 5, 3',5-Diallvl-4'-13-(methylamino)-1-phenylpropoxy]biphenyl-2-ol hydrochloride] |  |  |  |  | 0.85 |  |  |  |  | 99 | 0 | 1.6 | 75 | 1.4 | 1 | 1.2 | 1.5
